Results on two molecules are retold here after ChEMBL document CHEMBL1773000, “Synthesis and biological activity of 22-deoxo-23-oxa analogues of saponin OSW-1” (J Med Chem, 2011).

The test system of assay [1] is CCRF-CEM. The experiment in a line: Induction of apoptosis in human CEM cells assessed as increase in caspase-3 activity using Ac-DEVD-AMC as a substrate at 1 uM after 24 hrs by fluorescence microplate reader assay relative to untreated control. Format: functional.
For assay [2], the system named is CCRF-CEM. As to the kind of experiment: Induction of apoptosis in human CEM cells assessed as increase in caspase-3 activity using Ac-DEVD-AMC as a substrate at 2 uM after 24 hrs by fluorescence microplate reader assay relative to untreated control. Format: functional.
Assay [3] concerns CCRF-CEM. As to the kind of experiment: Induction of apoptosis in human CEM cells assessed as increase in caspase-3 activity using Ac-DEVD-AMC as a substrate at 5 uM after 24 hrs by fluorescence microplate reader assay relative to untreated control. Format: functional.
For assay [4], the system named is CCRF-CEM. As to the kind of experiment: Induction of apoptosis in human CEM cells assessed as cleavage of PARP at 1 to 5 uM after 24 hrs by Western blot analysis relative to untreated control. Format: functional, cell-based.
Assay [5] has as its system CCRF-CEM. The experiment in a line: Induction of apoptosis in human CEM cells assessed as increase in Bcl-2 protein level after 24 hrs by Western blot analysis relative to untreated control. Format: functional, cell-based.
The subject of assay [6] is CCRF-CEM. The experiment in a line: Induction of apoptosis in human CEM cells assessed as effect on […] protein expression at 1 to 5 uM after 24 hrs by Western blot analysis relative to untreated control. Format: functional, cell-based. A general note: Immunoblotting shows a protein as a band on a membrane.
Assay [7] concerns CCRF-CEM. As to the kind of experiment: Induction of apoptosis in human CEM cells assessed as effect on retinoblastoma protein expression at 1 to 5 uM after 24 hrs by Western blot analysis relative to untreated control. Format: functional, cell-based.
Assay [8] relates to CCRF-CEM. As to the kind of experiment: Induction of apoptosis in human CEM cells assessed as accumulation of caspase-3 after 24 hrs by Western blot analysis relative to untreated control. Format: functional, cell-based.
In assay [9] the test system is CCRF-CEM. As to the kind of experiment: Induction of apoptosis in human CEM cells assessed as increase in caspase-7 activity using Ac-DEVD-AMC as a substrate at 1 uM after 24 hrs by fluorescence microplate reader assay relative to untreated control. Format: functional.
The test system of assay [10] is CCRF-CEM. As to the kind of experiment: Induction of apoptosis in human CEM cells assessed as increase in caspase-7 activity using Ac-DEVD-AMC as a substrate at 2 uM after 24 hrs by fluorescence microplate reader assay relative to untreated control. Format: functional.
Assay [11] deals with CCRF-CEM. As to the kind of experiment: Induction of apoptosis in human CEM cells assessed as increase in caspase-7 activity using Ac-DEVD-AMC as a substrate at 5 uM after 24 hrs by fluorescence microplate reader assay relative to untreated control. Format: functional.
In assay [12] the test system is CCRF-CEM. The experiment in a line: Cytotoxicity against human CEM cells assessed as viable cells after 72 hrs by calcein AM assay. Format: functional, cell-based.
Assay [13] relates to MCF7. The experiment in a line: Cytotoxicity against human MCF7 cells assessed as viable cells after 72 hrs by calcein AM assay. Format: functional, cell-based. Particulars: MCF7, 72 h.
Assay [14] deals with G-361. The experiment in a line: Cytotoxicity against human G361 cells assessed as viable cells after 72 hrs by calcein AM assay. Format: functional, cell-based. Particulars: G-361, 72 h.
In assay [15] the test system is HeLa. The experiment in a line: Cytotoxicity against human HeLa cells assessed as viable cells after 72 hrs by calcein AM assay. Format: functional, cell-based.
Assay [16] deals with HOS. The experiment in a line: Cytotoxicity against human HOS cells assessed as viable cells after 72 hrs by calcein AM assay. Format: functional, cell-based.
Assay [17] has as its system A549. The experiment in a line: Cytotoxicity against human A549 cells assessed as viable cells after 72 hrs by calcein AM assay. Format: functional, cell-based. Particulars: A549, 72 h.
Assay [18] is described as follows: Cytotoxicity against human T98 cells assessed as viable cells after 72 hrs by calcein AM assay. Format: functional, cell-based. Conditions: T98, 72 h.
Assay [19] relates to HCT-116. The experiment in a line: Cytotoxicity against human HCT116 assessed as viable cells after 72 hrs by calcein AM assay. Format: functional, cell-based. Conditions: HCT-116, 72 h.
The subject of assay [20] is BJ. The experiment in a line: Cytotoxicity against human BJ cells assessed as viable cells after 72 hrs by calcein AM assay. Format: cell-based.
Assay [21] relates to CCRF-CEM. The experiment in a line: Induction of cell cycle arrest in human CEM cells assessed as increase in accumulation of cells at S-phase after 24 hrs by flow cytometric analysis relative to untreated control. Format: functional, cell-based. For orientation: In flow cytometry, cells or beads pass a laser one at a time.
The subject of assay [22] is CCRF-CEM. The experiment in a line: Induction of cell cycle arrest in human CEM cells assessed as increase in accumulation of cells at G2/M-phase after 24 hrs by flow cytometric analysis relative to untreated control. Format: functional, cell-based.
For assay [23], the system named is CCRF-CEM. As to the kind of experiment: Induction of cell cycle arrest in human CEM cells assessed as reduction in accumulation of cells at G0/G1-phase after 24 hrs by flow cytometric analysis relative to untreated control. Format: functional, cell-based.
The test system of assay [24] is CCRF-CEM. The experiment in a line: Induction of apoptosis in human CEM cells assessed as increase in amount of DNA at subG1-phase after 24 hrs by flow cytometric analysis relative to untreated control. Format: functional, cell-based.
Assay [25] concerns CCRF-CEM. The experiment in a line: Induction of apoptosis in human CEM cells assessed as increase in caspase-3 activity using Ac-DEVD-AMC as a substrate at 0.25 uM after 24 hrs by fluorescence microplate reader assay relative to untreated control. Format: functional.
Assay [26] concerns CCRF-CEM. As to the kind of experiment: Induction of apoptosis in human CEM cells assessed as increase in caspase-3 activity using Ac-DEVD-AMC as a substrate at 0.5 uM after 24 hrs by fluorescence microplate reader assay relative to untreated control. Format: functional.
Assay [27] relates to CCRF-CEM. The experiment in a line: Induction of apoptosis in human CEM cells assessed as cleavage of PARP at 0.1 to 0.5 uM after 24 hrs by Western blot analysis relative to untreated control. Format: functional, cell-based.
For assay [28], the system named is CCRF-CEM. As to the kind of experiment: Induction of apoptosis in human CEM cells assessed as effect on […] protein expression at 0.1 to 0.5 uM after 24 hrs by Western blot analysis relative to untreated control. Format: functional, cell-based.
The test system of assay [29] is CCRF-CEM. As to the kind of experiment: Induction of apoptosis in human CEM cells assessed as effect on retinoblastoma protein expression at 0.1 to 0.5 uM after 24 hrs by Western blot analysis relative to untreated control. Format: functional, cell-based.
In assay [30] the test system is CCRF-CEM. The experiment in a line: Induction of apoptosis in human CEM cells assessed as increase in caspase-7 activity using Ac-DEVD-AMC as a substrate at 0.25 uM after 24 hrs by fluorescence microplate reader assay relative to untreated control. Format: functional.
The subject of assay [31] is CCRF-CEM. The experiment in a line: Induction of apoptosis in human CEM cells assessed as increase in caspase-7 activity using Ac-DEVD-AMC as a substrate at 0.5 uM after 24 hrs by fluorescence microplate reader assay relative to untreated control. Format: functional.

Activity calls are given as the source filed them. The rule behind the calls is not given here.

Usually IC50 stands for the concentration that inhibits the measured activity by half.

Turning to `COc1ccc(C(=O)OC[C@@H](C)[C@@]2(O)[C@@H](O[C@@H]3OC[C@H](O)[C@H](O[C@@H]4OC[C@@H](O)[C@H](O)[C@H]4OC(=O)c4ccc(OC)cc4)[C@H]3OC(C)=O)C[C@H]3[C@@H]4CC=C5C[C@@H](O)CC[C@]5(C)[C@H]4CC[C@@]32C)cc1`, the “fold change (FC)” value in assay [1] is 2.1; in [2] it was 1.7; in [3], 1.8; in [9], 2.1; in assay [10] it was 1.7; in [11] it was 1.8. Further, the outcome in [4] and in assay [24] was Active. The Activity result in assay [5], in assay [8], in [21], in [22] and in [23] was “Dose-dependent effect” throughout. Also, the outcome in [6] and in [7] was inactive. Moreover, the IC50 in [12] was 0.057 µM; in [13], 0.41 µM; in [14] it was 0.17 µM; in [15], 0.34 µM; in assay [16], 5.4 µM; in [17], 0.57 µM. For the same molecule, the IC50 is 0.055 µM in assay [18], 5 µM in [19] and 0.039 µM in assay [20].
Regarding `C=CCCCCCCCCC(=O)OC[C@@H](C)[C@@]1(O)[C@@H](O[C@@H]2OC[C@H](O)[C@H](O[C@@H]3OC[C@@H](O)[C@H](O)[C@H]3OC(=O)c3ccc(OC)cc3)[C@H]2OC(C)=O)C[C@H]2[C@@H]3CC=C4C[C@@H](O)CC[C@]4(C)[C@H]3CC[C@@]21C`, the “fold change (FC)” value in assay [25], in assay [26], in assay [30] and in [31] was 2.5 each time. For the same molecule, the outcome in assay [27] was Active. Also, the outcome in assay [28] and in assay [29] was inactive. The Activity result in assay [8], in assay [21], in [22] and in assay [23] was “Dose-dependent effect” throughout. The IC50 in assay [12] is 0.0061 µM; in [13] it was 0.029 µM; in [14], 0.0067 µM; in [15] it was 0.103 µM; in assay [16], 1.94 µM; in [17], 0.6 µM. For the same molecule, the IC50 in assay [18] is 0.007 µM; in [19], 2.6 µM; in [20], 0.003 µM.
